Measured values published in patent US20130210765A1, “HYALURONIC ACID CONTAINING PHARMACEUTICAL OR VETERINARY COMPOSITIONS” (priority 2004, published 2013).

System: lameness in horses
Experiment: double-blind placebo controlled crossover clinical trial on lameness in horses
Type: in vivo
Procedure: A crossover double blind and randomised study was designed to evaluate the efficacy of GLM lipid extract and HA alone and in combination in the treatment of lameness in horses.
Qualifying horses were initially examined and randomly assigned to receive four capsules of the placebo, or containing 50 mg GLM, or 50 mg Hyaluronate, or a mixture of 50 mg GLM and 50 mg Hyaluronate daily. Randomisation was computer generated in balanced blocks of the four treatment regimes and was crossover in design. No other medications were administered.
Evaluations of arthritic/musculoskeletal signs were carried out by a veterinarian and research assistant at wk 0 and every two weeks thereafter until the end of the trial. All parameters were scored on a scale of 1 to 10 according to severity and symptom improvement where 1 was severe disease symptomology and 10 indicated a disease free condition score and the results are shown in Table 1 and FIG. 4.
Each horse was scored for mobility (average of individual scores for lameness in walking, trotting, turning and any other musculoskeletal abnormality). Individual joints (neck, back, carpus, elbow and shoulder or tarsus, stifle and hip) of each limb were individually scored for degree of pain, swelling, crepitus and reduction in range of movement. Horses were also filmed for gait analysis and scored. Summation of the mobility score and all individual joint scores for each horse comprised their total arthritic/musculoskeletal score.

Hyaluronic acid [Hyaluronate]
mean clinical lameness score, Mid Phase 14 Days (four capsules daily, 14 days, scale 1 (severe) to 10 (disease free), Mean ± SEM): 2.6 ± 0.47^be | mean clinical lameness score, End Phase 28 Days (four capsules daily, 28 days, scale 1 (severe) to 10 (disease free), Mean ± SEM): 2.8 ± 0.48^ef | effect on degree of lameness / locomotory score (in words) (within 2 weeks / 14 days of treatment): little influence on it own
